Reference: patent US7041687B2, “Indazole compounds useful as protein kinase inhibitors” (Vertex Pharmaceuticals Incorporated, priority 2002, dated 2006)
Values joined by “and” are separate entries in the source; they are usually repeats but may differ in a detail not shown here. Identical values can stand only once.

Tests used:
Format in all cases: biochemical
AKT-3 = AKT-3 (Homo sapiens, UniProt Q9Y243); assay: AKT-3 inhibition assay (standard coupled enzyme assay); settings: 170 μM ATP, 200 μM peptide, 45 nM AKT, 30° C.
AKT-3, sequence (Q9Y243 whole entry): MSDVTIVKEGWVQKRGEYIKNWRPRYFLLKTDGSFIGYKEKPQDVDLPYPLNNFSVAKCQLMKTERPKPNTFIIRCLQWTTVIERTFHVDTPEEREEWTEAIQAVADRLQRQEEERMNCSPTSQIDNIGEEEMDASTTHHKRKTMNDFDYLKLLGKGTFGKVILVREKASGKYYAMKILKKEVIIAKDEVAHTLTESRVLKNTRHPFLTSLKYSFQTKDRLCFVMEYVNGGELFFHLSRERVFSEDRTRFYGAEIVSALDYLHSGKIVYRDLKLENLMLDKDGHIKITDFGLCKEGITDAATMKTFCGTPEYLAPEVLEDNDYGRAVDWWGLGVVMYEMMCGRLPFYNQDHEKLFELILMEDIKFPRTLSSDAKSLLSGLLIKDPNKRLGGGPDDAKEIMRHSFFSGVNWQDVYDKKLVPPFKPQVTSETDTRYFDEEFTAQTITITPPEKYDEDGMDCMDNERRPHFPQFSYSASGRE
Description: Assays were carried out in a mixture of 100 mM HEPES 7.5, 10 mM MgCl2, 25 mM NaCl, 1 mM DTT and 3% DMSO. Final substrate concentrations in the assay were 170 μM ATP (Sigma Chemicals) and 200 μM peptide (RPRAATF, American Peptide, Sunnyvale, Calif.). Assays were carried out at 30° C. and 45 nM AKT. Final concentrations of the components of the coupled enzyme system were 2.5 mM phosphoenolpyruvate, 300 μM NADH, 30 μg/ML pyruvate kinase and 10 μg/ml lactate dehydrogenase.
An assay stock buffer solution was prepared containing all of the reagents listed above, with the exception of AKT, DTT, and the test compound of interest. 55 μl of the stock solution was placed in a 96 well plate followed by addition of 2 μl of 1 mM DMSO stock containing the test compound (final compound concentration 30 μM). The plate was pre-incubated for about 10 minutes at 30° C. and the reaction initiated by addition of 10 μl of enzyme (final concentration 45 nM) and 1 mM DTF. Rates of reaction were obtained using a Molecular Devices SpectraMax Plus plate reader over a 15 minute read time at 30° C.

PKA = PKA (Homo sapiens, UniProt P17612); assay: PKA inhibition assay (standard coupled enzyme assay); settings: 50 μM ATP, 80 μM Kemptide, 18 nM PKA, 30° C.
Description: Compounds were screened for their ability to inhibit PKA using a standard coupled enzyme assay (Fox et al., Protein Sci., (1998) 7, 2249). Assays were carried out in a mixture of 100 mM HEPES 7.5, 10 mM MgCl2, 25 mM NaCl, 1 mM DTT and 3% DMSO. Final substrate concentrations in the assay were 50 μM ATP (Sigma Chemicals) and 80 μM peptide (Kemptide, American Peptide, Sunnyvale, Calif.). Assays were carried out at 30° C. and 18 nM PKA. Final concentrations of the components of the coupled enzyme system were 2.5 mM phosphoenolpyruvate, 300 μM NADH, 30 μg/ml pyruvate kinase and 10 μg/ml lactate dehydrogenase.
An assay stock buffer solution was prepared containing all of the reagents listed above, with the exception of ATP, and the test compound of interest. 55 μl of the stock solution was placed in a 96 well plate followed by addition of 2 μl of DMSO stock containing serial dilutions of the test compound (typically starting from a final concentration of 5 μM). The plate was preincubated for 10 minutes at 30° C. and the reaction initiated by addition of 5 μl of ATP (final concentration 50 μM). Initial reaction rates were determined with a Molecular Devices SpectraMax Plus plate reader over a 15 minute time course. IC50 and Ki data were calculated from non-linear regression analysis using the Prism software package (GraphPad Prism version 3.0a for Macintosh, GraphPad Software, San Diego Calif., USA).

PDK-1 = biological target: T1, PDK-1 (Homo sapiens, UniProt O15530); assay: PDK-1 inhibition assay (radioactive-phosphate incorporation); settings: 40 μM ATP, 65 μM PDKtide, 25 nM PDK-1, 30° C.
T1 sequence (O15530 1-556): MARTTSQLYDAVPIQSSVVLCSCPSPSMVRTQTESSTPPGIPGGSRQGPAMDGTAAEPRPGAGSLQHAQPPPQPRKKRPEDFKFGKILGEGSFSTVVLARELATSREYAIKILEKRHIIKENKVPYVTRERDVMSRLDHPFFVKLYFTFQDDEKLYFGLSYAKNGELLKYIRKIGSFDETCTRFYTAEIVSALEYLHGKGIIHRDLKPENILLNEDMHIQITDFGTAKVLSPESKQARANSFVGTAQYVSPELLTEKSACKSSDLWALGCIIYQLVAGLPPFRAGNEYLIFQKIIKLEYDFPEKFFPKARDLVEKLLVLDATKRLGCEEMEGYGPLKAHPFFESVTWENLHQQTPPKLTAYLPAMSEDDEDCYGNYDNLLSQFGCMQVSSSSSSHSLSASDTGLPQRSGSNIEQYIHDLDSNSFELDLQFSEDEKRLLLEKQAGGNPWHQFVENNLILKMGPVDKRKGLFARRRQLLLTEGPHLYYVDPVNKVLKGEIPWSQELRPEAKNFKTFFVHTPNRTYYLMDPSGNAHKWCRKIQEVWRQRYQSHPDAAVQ
Description: Compounds were screened for their ability to inhibit PDK-1 using a radioactive-phosphate incorporation assay (Pitt and Lee, J. Biomol. Screen., (1996) 1, 47). Assays were carried out in a mixture of 100 mM HEPES (pH 7.5), 10 mM MgCl2, 25 mM NaCl, 2 mM DTT. Final substrate concentrations in the assay were 40 μM ATP (Sigma Chemicals) and 65 μM peptide (PDKtide, Upstate, Lake Placid, N.Y.). Assays were carried out at 30° C. and 25 nM PDK-1 in the presence of ˜27.5 nCi/μL of [γ-^32P]ATP (Amersham Pharmacia Biotech, Amersham, UK). An assay stock buffer solution was prepared containing all of the reagents listed above, with the exception of ATP, and the test compound of interest. 15 μl of the stock solution was placed in a 96 well plate followed by addition of 1 μl of 0.5 mM DMSO stock containing the test compound (final compound concentration 25 μM, final DMSO concentration 5%). The plate was preincubated for about 10 minutes at 30° C. and the reaction initiated by addition of 4 μl ATP (final concentration 40 μM).
The reaction was stopped after 10 minutes by the addition of 100 μL 100 mM phosphoric acid, 0.01% Tween-20. A phosphocellulose 96 well plate (Millipore, Cat no. MAPHNOB50) was pretreated with 100 μL 100 mM phosphoric acid, 0.01% Tween-20 prior to the addition of the reaction mixture (100 μL). The spots were left to soak for at least 5 minutes, prior to wash steps (4×200 μL 100 mM phosphoric acid, 0.01% Tween-20). Alter drying, 20 μL Optiphase ‘SuperMix’ liquid scintillation cocktail (Perkin Elmer) was added to the well prior to scintillation counting (1450 Microbeta Liquid Scintillation Counter, Wallac).

Compound	Ki (AKT-3)	Ki (PKA)	Ki (PDK-1)
NCCC(C(=O)Nc1ccc2[nH]ncc2c1)c1cc(C(F)(F)F)cc(Cl)n1 (stereo not drawn) [Compound I-149]	< 1000 nM	< 1000 nM	–
NCCC(C(=O)Nc1ccc2[nH]ncc2c1)c1cccc(C(F)(F)F)c1 (stereo not drawn) [Compound I-104]	< 1000 nM	< 1000 nM	–
O=C(Nc1ccc2[nH]ncc2c1)C(CO)c1ccc(F)c(Cl)c1 (stereo not drawn) [Compound I-85]	–	< 1000 nM	–
CNc1cccc(C(=O)Nc2n[nH]c3ccc(NC(=O)C(CCN)c4ccc(Cl)c(Cl)c4)cc23)c1 (stereo not drawn) [Compound I-209]	< 1000 nM	< 1000 nM	–
NCCNC(C(=O)Nc1ccc2[nH]ncc2c1)c1ccc2ccccc2c1 (stereo not drawn) [Compound I-73]	< 1000 nM	< 1000 nM	–
Cc1n[nH]c2ccc(NC(=O)C(CN)c3ccc(Cl)s3)cc12 (stereo not drawn) [Compound I-245]	< 1000 nM	< 1000 nM	–
NCCC(C(=O)Nc1ccc2[nH]nc(Nc3cccc(F)c3)c2c1)c1ccc(Cl)c(Cl)c1 (stereo not drawn) [Compound I-213]	< 1000 nM	–	1000 to 3000 nM
NCCC(C(=O)Nc1ccc2[nH]nc(NC(=O)C3CCCCC3)c2c1)c1ccccc1 (stereo not drawn) [Compound I-1050]	1000 to 10000 nM	–	> 3000 nM
NC(C(=O)Nc1ccc2[nH]ncc2c1)c1c[nH]c2ccccc12 (stereo not drawn) [Compound I-56]	1000 to 10000 nM	< 1000 nM	–
NC[C@H](C(=O)Nc1ccc2[nH]ncc2c1)c1ccc(Cl)c(Cl)c1 [Compound I-243]	< 1000 nM	< 1000 nM	–
NCCC(C(=O)Nc1ccc2[nH]nc(NS(=O)(=O)c3cccc(Cl)c3)c2c1)c1ccc(Cl)c(Cl)c1 (stereo not drawn) [Compound I-191]	1000 to 10000 nM	–	> 3000 nM
O=C(CCC(C(=O)O)c1ccccc1)Nc1ccc2[nH]ncc2c1 (stereo not drawn) [Compound I-1014]	< 1000 nM	–	> 3000 nM
N#Cc1cccc(Nc2n[nH]c3ccc(NC(=O)[C@@H](CCN)c4ccccc4)cc23)c1 [Compound I-1055]	1000 to 10000 nM	–	1000 to 3000 nM
O=C(Nc1ccc2[nH]ncc2c1)C(CO)c1ccccc1 (stereo not drawn) [Compound I-84]	–	1000 to 5000 nM	–
Cc1cccc(Nc2n[nH]c3ccc(NC(=O)C(CCN)c4ccccc4)cc23)c1 (stereo not drawn) [Compound I-1038]	1000 to 10000 nM	–	1000 to 3000 nM
NCCC(C(=O)Nc1cc(-c2ccccc2)c2[nH]ncc2c1)c1ccc(Cl)c(Cl)c1 (stereo not drawn) [Compound I-150]	1000 to 10000 nM	–	> 3000 nM
NCCC(C(=O)Nc1ccc2[nH]nc(NC(=O)c3ccc4ccccc4c3)c2c1)c1ccc(Cl)c(Cl)c1 (stereo not drawn) [Compound I-170]	< 1000 nM	–	1000 to 3000 nM
NCC[C@@H](C(=O)Nc1ccc2[nH]nc(NC(=O)c3cccs3)c2c1)c1ccccc1 [Compound I-1049]	< 1000 nM	–	< 1000 nM
NCCC(C(=O)Nc1ccc2[nH]nc(NC(=O)c3ccc4c(c3)OCO4)c2c1)c1ccc(Cl)c(Cl)c1 (stereo not drawn) [Compound I-171]	< 1000 nM	–	< 1000 nM
Cc1cccc(Nc2n[nH]c3ccc(NC(=O)C(CCN)c4ccc(Cl)c(Cl)c4)cc23)c1 (stereo not drawn) [Compound I-212]	< 1000 nM	–	1000 to 3000 nM
N#Cc1ccc(-c2n[nH]c3ccc(NC(=O)C(CCN)c4ccccc4)cc23)cc1 (stereo not drawn) [Compound I-259]	1000 to 10000 nM	–	< 1000 nM
NCC[C@H](C(=O)Nc1ccc2[nH]nc(NC(=O)c3cccs3)c2c1)c1c(F)ccc(Cl)c1F [Compound I-1046]	< 1000 nM	–	< 1000 nM
COc1ccccc1C(CCN)C(=O)Nc1ccc2[nH]ncc2c1 (stereo not drawn) [Compound I-1005]	< 1000 nM	–	1000 to 3000 nM
NCCC(C(=O)Nc1ccc2[nH]nc(NC(=O)COc3ccccc3)c2c1)c1ccccc1 (stereo not drawn) [Compound I-1051]	1000 to 10000 nM	–	> 3000 nM
Cc1cccn(C(CCN)C(=O)Nc2ccc3[nH]nc(C)c3c2)c1=O (stereo not drawn) [Compound I-137]	1000 to 10000 nM	–	1000 to 3000 nM
O=C(Cc1c[nH]c2ccccc12)Nc1ccc2[nH]ncc2c1 [Compound I-24]	–	1000 to 5000 nM	–
NCCC(C(=O)Nc1ccc2[nH]nc(NC(=O)Nc3ccccc3)c2c1)c1ccc(Cl)c(Cl)c1 (stereo not drawn) [Compound I-176]	1000 to 10000 nM	–	1000 to 3000 nM

Compound	Ki (AKT-3)	Ki (PKA)	Ki (PDK-1)
NCC(C(=O)Nc1ccc2[nH]ncc2c1)c1cccc(Cl)c1F (stereo not drawn) [Compound I-257]	< 1000 nM	–	> 3000 nM
CC(C)c1cccc(-c2n[nH]c3ccc(NC(=O)C(CCN)c4ccc(Cl)c(Cl)c4)cc23)c1 (stereo not drawn) [Compound I-222]	< 1000 nM	–	> 3000 nM
COc1cccc(C(CCN)C(=O)Nc2ccc3[nH]nc(C)c3c2)c1 (stereo not drawn) [Compound I-1018]	1000 to 10000 nM	–	1000 to 3000 nM
Cc1cccc(-c2n[nH]c3ccc(NC(=O)C(CCN)c4ccc(Cl)c(Cl)c4)cc23)c1 (stereo not drawn) [Compound I-251]	< 1000 nM	–	< 1000 nM
NCC[C@@H](C(=O)Nc1ccc2[nH]nc(-c3ccccc3)c2c1)c1c(F)ccc(Cl)c1F [Compound I-1056]	1000 to 10000 nM	–	< 1000 nM
NCCC(SCc1ccccc1)C(=O)Nc1ccc2[nH]ncc2c1 (stereo not drawn) [Compound I-154]	1000 to 10000 nM	–	> 3000 nM
NCCC(C(=O)Nc1ccc2[nH]nc(C(=O)Nc3ccccc3)c2c1)c1ccccc1 (stereo not drawn) [Compound I-1040]	10000 to 20000 nM	–	1000 to 3000 nM
O=C(Cc1cccc(Cl)c1)Nc1ccc2[nH]ncc2c1 [Compound I-6, 2-(3-Chloro-phenyl)-N-(1H-indazol-5-yl)-acetamide]	–	1000 to 5000 nM	–
NCC[C@H](C(=O)Nc1ccc2[nH]nc(-c3ccccc3)c2c1)c1c(F)ccc(Cl)c1F [Compound I-1057]	10000 to 20000 nM	–	< 1000 nM
NCCC(C(=O)Nc1ccc2[nH]ncc2c1)c1cccc(OCc2ccccc2)c1 (stereo not drawn) [Compound I-114]	1000 to 10000 nM	–	> 3000 nM
NCCC(C(=O)Nc1ccc2[nH]nc(NC(=O)Nc3cccc(Cl)c3)c2c1)c1ccc(Cl)c(Cl)c1 (stereo not drawn) [Compound I-173]	< 1000 nM	–	< 1000 nM
NCC[C@@H](C(=O)Nc1ccc2[nH]nc(NC(=O)c3cccs3)c2c1)c1c(F)ccc(Cl)c1F [Compound I-1045]	< 1000 nM	–	< 1000 nM
Cc1n[nH]c2ccc(NC(=O)C(CCN)c3cccc(CC(C)C)c3)cc12 (stereo not drawn) [Compound I-142]	1000 to 10000 nM	–	> 3000 nM
NCCC(C(=O)Nc1ccc2[nH]nc(NS(=O)(=O)c3ccccc3)c2c1)c1ccc(Cl)c(Cl)c1 (stereo not drawn) [Compound I-190]	10000 to 20000 nM	–	> 3000 nM
NCCC(C(=O)Nc1ccc2[nH]nc(-c3cccc(C(=O)O)c3)c2c1)c1ccccc1 (stereo not drawn) [Compound I-246]	–	< 1000 nM	–
Cc1cccc(C(CCN)C(=O)Nc2ccc3[nH]ncc3c2)c1 (stereo not drawn) [Compound I-112]	< 1000 nM	–	1000 to 3000 nM
NCC[C@@H](C(=O)Nc1ccc2[nH]nc(-c3ccccc3)c2c1)c1ccccc1 [Compound I-1052]	1000 to 10000 nM	–	< 1000 nM
O=C(CCCc1ccccc1)Nc1ccc2[nH]ncc2c1 [Compound I-92]	–	1000 to 5000 nM	–
NCCC(C(=O)Nc1ccc2[nH]nc(-c3cccc(Cl)c3)c2c1)c1ccccc1 (stereo not drawn) [Compound I-241]	1000 to 10000 nM	–	< 1000 nM
CC(=O)c1ccc(-c2n[nH]c3ccc(NC(=O)C(CCN)c4ccccc4)cc23)cc1 (stereo not drawn) [Compound I-250]	1000 to 10000 nM	–	< 1000 nM
CC(=O)Nc1cccc(C(CCN)C(=O)Nc2ccc3[nH]ncc3c2)c1 (stereo not drawn) [Compound I-111]	1000 to 10000 nM	–	> 3000 nM
O=C(Cc1cccc(Cl)c1F)Nc1ccc2[nH]ncc2c1 [Compound I-93]	–	< 1000 nM	–
O=C(Cc1ccc(Cl)c(Cl)c1)Nc1ccc2[nH]ncc2c1 [Compound I-16]	1000 to 10000 nM	–	> 3000 nM
N#Cc1cccc(Nc2n[nH]c3ccc(NC(=O)[C@H](CCN)c4c(F)ccc(Cl)c4F)cc23)c1 [Compound I-1047]	< 1000 nM	–	> 3000 nM
N#Cc1cccc(Nc2n[nH]c3ccc(NC(=O)[C@H](CCN)c4ccccc4)cc23)c1 [Compound I-1054]	< 1000 nM	–	1000 to 3000 nM and > 3000 nM
NCCNC(C(=O)Nc1ccc2[nH]ncc2c1)c1ccc(Cl)c(Cl)c1 (stereo not drawn) [Compound I-69]	–	< 1000 nM	–
COC(=O)c1cccc(-c2n[nH]c3ccc(NC(=O)C(CCN)c4ccccc4)cc23)c1 (stereo not drawn) [Compound I-244]	–	< 1000 nM	–
